Each structure is given as a SMILES string. Where a SMILES comes first, the peptide text is derived from it. Bridges are numbered along the chain shown (N, C = ends). [ ]: non-standard residue; d: D form. The star is where a group is joined. ξ: configuration not given here. Phe(4-CONH2) = NC(=O)c1ccc(C[C@H](N)C(=O)O)cc1; Phe(4-COOH) = N[C@@H](Cc1ccc(C(=O)O)cc1)C(=O)O; Bip = N[C@@H](Cc1ccc(-c2ccccc2)cc1)C(=O)O; Phe(3-Me) = Cc1cccc(C[C@H](N)C(=O)O)c1; Val(3-OH) = CC(C)(O)[C@H](N)C(=O)O; 4Pal = N[C@@H](Cc1ccncc1)C(=O)O; 3Thi = N[C@@H](Cc1ccsc1)C(=O)O; Cha = N[C@@H](CC1CCCCC1)C(=O)O; Thr(3ξ) = CC(O)[C@H](N)C(=O)O; Carboxymethyl = O=C(O)C*; Orn = NCCC[C@H](N)C(=O)O; Dab = NCC[C@H](N)C(=O)O; NH(CH2)3NH2 = NCCCN*

T1 sequence (Q15116 25-288): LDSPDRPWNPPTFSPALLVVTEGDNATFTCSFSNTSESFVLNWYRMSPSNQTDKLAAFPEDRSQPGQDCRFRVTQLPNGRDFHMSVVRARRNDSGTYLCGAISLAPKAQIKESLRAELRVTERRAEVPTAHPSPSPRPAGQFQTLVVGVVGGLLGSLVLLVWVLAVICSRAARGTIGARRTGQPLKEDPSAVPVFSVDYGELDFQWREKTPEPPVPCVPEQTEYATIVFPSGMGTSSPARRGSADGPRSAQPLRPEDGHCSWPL

The test addresses T1, human PD-1 / PD-L1-Ig binding on Jurkat cell line over-expressing human PD-1 (Jurkat-PD-1) (Homo sapiens, UniProt Q15116).
T1 construct: expressed in transfected cells; host or cells: Jurkat
The experiment in a line: Jurkat-PD-1 Cell Binding High-Content Screening Assay (CBA). In kind it is cell-based. The following applies: Jurkat-PD-1 cells, PE-labeled PD-L1-Ig 20 nM final; read-out: Jurkat HPD1_PDL1 IC50. The gist of the method: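 Jurkat-hPD-1 cells in DMEM with 10% fetal calf serum receive test compound and are held at 37° C for 2 h. PE-labeled PD-L1-Ig is added at 20 nM final and left for 1 hour. Cells are then fixed and Hoechst-stained, and binding is measured by imaging.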
As usually defined, the IC50 is the point on the concentration scale where inhibition reaches its midpoint. Take `Cc1cccc(C[C@@H]2NC(=O)[C@H](CC(=O)O)NC(=O)[C@H](Cc3ccc(OCC(=O)O)cc3)NC(=O)[C@H](Cc3ccncc3)NC(=O)CSC[C@@H](C(=O)N[C@@H](CO)C(=O)NCCCN)NC(=O)[C@H](C(C)O)NC(=O)[C@H](C(C)(C)O)NC(=O)[C@H](CC3CCCCC3)NC(=O)[C@H](Cc3cnc[nH]3)NC(=O)[C@@H](CC(C)C)NC(=O)[C@H](CCCN)NC(=O)[C@H](Cc3ccc(OCC(=O)O)cc3)NC(=O)[C@H](Cc3ccc(-c4ccccc4)cc3)NC(=O)[C@H](Cc3ccc(OCC(=O)O)cc3)NC2=O)c1` (stereo partly drawn) [Compound 2647] ({CH2CO}-[4Pal]Y(Carboxymethyl)D[Phe(3-Me)]Y(Carboxymethyl)[Bip]Y(Carboxymethyl)[Orn][dL]H[Cha][Val(3-OH)][Thr(3ξ)]CS-{NH(CH2)3NH2}; thioether N-14): the IC50 is 22.8 nM.

Regarding `Cc1cccc(C[C@@H]2NC(=O)[C@H](CC(=O)O)NC(=O)[C@H](Cc3ccc(OCC(=O)O)cc3)NC(=O)[C@H](CCN)NC(=O)CSC[C@@H](C(=O)N[C@@H](CO)C(=O)NCCCN)NC(=O)[C@H](C(C)O)NC(=O)[C@H](C(C)(C)O)NC(=O)[C@H](CC3CCCCC3)NC(=O)[C@H](Cc3cnc[nH]3)NC(=O)[C@@H](CC(C)C)NC(=O)[C@H](CCCN)NC(=O)[C@H](Cc3ccc(OCC(=O)O)cc3)NC(=O)[C@H](Cc3ccc(-c4ccccc4)cc3)NC(=O)[C@H](Cc3ccc(OCC(=O)O)cc3)NC2=O)c1` (stereo partly drawn) [Compound 2648] ({CH2CO}-[Dab]Y(Carboxymethyl)D[Phe(3-Me)]Y(Carboxymethyl)[Bip]Y(Carboxymethyl)[Orn][dL]H[Cha][Val(3-OH)][Thr(3ξ)]CS-{NH(CH2)3NH2}; thioether N-14), the 50% inhibitory concentration (IC50) turned out to be 98 nM. `Cc1cccc(C[C@@H]2NC(=O)[C@H](CC(=O)O)NC(=O)[C@H](Cc3ccc(OCC(=O)O)cc3)NC(=O)[C@H](Cc3cnc[nH]3)NC(=O)CSC[C@@H](C(=O)N[C@@H](CCN)C(N)=O)NC(=O)[C@H](C(C)O)NC(=O)[C@H](C(C)(C)O)NC(=O)[C@H](CC3CCCCC3)NC(=O)[C@H](CCN)NC(=O)[C@@H](CC(C)C)NC(=O)[C@H](CCCN)NC(=O)[C@H](Cc3ccc(OCC(=O)O)cc3)NC(=O)[C@H](Cc3ccc(-c4ccccc4)cc3)NC(=O)[C@H](Cc3ccc(OCC(=O)O)cc3)NC2=O)c1` (stereo partly drawn) [Compound 2649] ({CH2CO}-HY(Carboxymethyl)D[Phe(3-Me)]Y(Carboxymethyl)[Bip]Y(Carboxymethyl)[Orn][dL][Dab][Cha][Val(3-OH)][Thr(3ξ)]C[Dab]-NH2; thioether N-14): the IC50 was 7.2 nM. Turning to `Cc1cccc(C[C@@H]2NC(=O)[C@H](CC(=O)O)NC(=O)[C@H](Cc3ccc(OCC(=O)O)cc3)NC(=O)[C@H](Cc3cnc[nH]3)NC(=O)CSC[C@@H](C(=O)N[C@H](C)C(N)=O)NC(=O)[C@H](C(C)O)NC(=O)[C@H](C(C)(C)O)NC(=O)[C@H](CC3CCCCC3)NC(=O)[C@H](CCN)NC(=O)[C@@H](CC(C)C)NC(=O)[C@H](CCCN)NC(=O)[C@H](Cc3ccc(OCC(=O)O)cc3)NC(=O)[C@H](Cc3ccc(-c4ccccc4)cc3)NC(=O)[C@H](Cc3ccc(OCC(=O)O)cc3)NC2=O)c1` (stereo partly drawn) [Compound 2650] ({CH2CO}-HY(Carboxymethyl)D[Phe(3-Me)]Y(Carboxymethyl)[Bip]Y(Carboxymethyl)[Orn][dL][Dab][Cha][Val(3-OH)][Thr(3ξ)]C[dA]-NH2; thioether N-14), the IC50 came out at 38.5 nM.

Consider `Cc1cccc(C[C@@H]2NC(=O)[C@H](CC(=O)O)NC(=O)[C@H](Cc3ccc(O)cc3)NC(=O)[C@H](Cc3cnc[nH]3)NC(=O)CSC[C@@H](C(=O)N[C@H](C)C(N)=O)NC(=O)[C@H](CO)NC(=O)[C@H](C(C)(C)O)NC(=O)[C@H](CC3CCCCC3)NC(=O)[C@H](CCN)NC(=O)[C@@H](CC(C)C)NC(=O)[C@H](CCCN)NC(=O)[C@H](Cc3ccc(OCC(=O)O)cc3)NC(=O)[C@H](Cc3ccc(-c4ccccc4)cc3)NC(=O)[C@H](Cc3ccc(OCC(=O)O)cc3)NC2=O)c1` [Compound 2652] ({CH2CO}-HYD[Phe(3-Me)]Y(Carboxymethyl)[Bip]Y(Carboxymethyl)[Orn][dL][Dab][Cha][Val(3-OH)]SC[dA]-NH2; thioether N-14), for which the IC50 turned out to be 29.6 nM.

Consider `Cc1cccc(C[C@@H]2NC(=O)[C@H](CC(=O)O)NC(=O)[C@H](Cc3ccc(OCC(=O)O)cc3)NC(=O)[C@H](CCN)NC(=O)CSC[C@@H](C(=O)N[C@@H](CCN)C(N)=O)NC(=O)[C@H](CO)NC(=O)[C@H](C(C)(C)O)NC(=O)[C@H](CC3CCCCC3)NC(=O)[C@H](Cc3cnc[nH]3)NC(=O)[C@@H](CC(C)C)NC(=O)[C@H](CCCN)NC(=O)[C@H](Cc3ccc(OCC(=O)O)cc3)NC(=O)[C@H](Cc3ccc(-c4ccccc4)cc3)NC(=O)[C@H](Cc3ccc(OCC(=O)O)cc3)NC2=O)c1` [Compound 2653] ({CH2CO}-[Dab]Y(Carboxymethyl)D[Phe(3-Me)]Y(Carboxymethyl)[Bip]Y(Carboxymethyl)[Orn][dL]H[Cha][Val(3-OH)]SC[Dab]-NH2; thioether N-14), for which the IC50 amounted to 7.6 nM. Regarding `Cc1cccc(C[C@@H]2NC(=O)[C@H](CC(=O)O)NC(=O)[C@H](Cc3ccc(OCC(=O)O)cc3)NC(=O)[C@H](Cc3ccsc3)NC(=O)CSC[C@@H](C(=O)N[C@H](C)C(N)=O)NC(=O)[C@H](CO)NC(=O)[C@H](C(C)(C)O)NC(=O)[C@H](CC3CCCCC3)NC(=O)[C@H](CCN)NC(=O)[C@@H](CC(C)C)NC(=O)[C@H](CCCN)NC(=O)[C@H](Cc3ccc(OCC(=O)O)cc3)NC(=O)[C@H](Cc3ccc(-c4ccccc4)cc3)NC(=O)[C@H](Cc3ccc(OCC(=O)O)cc3)NC2=O)c1` [Compound 2654] ({CH2CO}-[3Thi]Y(Carboxymethyl)D[Phe(3-Me)]Y(Carboxymethyl)[Bip]Y(Carboxymethyl)[Orn][dL][Dab][Cha][Val(3-OH)]SC[dA]-NH2; thioether N-14), the IC50 amounted to 6.4 nM.

For the molecule `Cc1cccc(C[C@@H]2NC(=O)[C@H](CC(=O)O)NC(=O)[C@H](Cc3ccc(C(=O)O)cc3)NC(=O)[C@H](Cc3ccncc3)NC(=O)CSC[C@@H](C(=O)N[C@H](CC(N)=O)C(N)=O)NC(=O)[C@H](CO)NC(=O)[C@H](C(C)(C)O)NC(=O)[C@H](CC3CCCCC3)NC(=O)[C@H](CCN)NC(=O)[C@@H](CC(C)C)NC(=O)[C@H](CCCN)NC(=O)[C@H](Cc3ccc(C(=O)O)cc3)NC(=O)[C@H](Cc3ccc(-c4ccccc4)cc3)NC(=O)[C@H](Cc3ccc(OCC(=O)O)cc3)NC2=O)c1` [Compound 2655] ({CH2CO}-[4Pal][Phe(4-COOH)]D[Phe(3-Me)]Y(Carboxymethyl)[Bip][Phe(4-COOH)][Orn][dL][Dab][Cha][Val(3-OH)]SC[dN]-NH2; thioether N-14), the IC50 turned out to be 110 nM. Take `Cc1cccc(C[C@@H]2NC(=O)[C@H](CC(=O)O)NC(=O)[C@H](Cc3ccc(C(=O)O)cc3)NC(=O)[C@H](Cc3ccsc3)NC(=O)CSC[C@@H](C(=O)N[C@H](CC(N)=O)C(N)=O)NC(=O)[C@H](CO)NC(=O)[C@H](C(C)(C)O)NC(=O)[C@H](CC3CCCCC3)NC(=O)[C@H](CCN)NC(=O)[C@@H](CC(C)C)NC(=O)[C@H](CCCN)NC(=O)[C@H](Cc3ccc(C(=O)O)cc3)NC(=O)[C@H](Cc3ccc(-c4ccccc4)cc3)NC(=O)[C@H](Cc3ccc(OCC(=O)O)cc3)NC2=O)c1` [Compound 2656] ({CH2CO}-[3Thi][Phe(4-COOH)]D[Phe(3-Me)]Y(Carboxymethyl)[Bip][Phe(4-COOH)][Orn][dL][Dab][Cha][Val(3-OH)]SC[dN]-NH2; thioether N-14): the IC50 came to 25 nM.

For `Cc1cccc(C[C@@H]2NC(=O)[C@H](CC(=O)O)NC(=O)[C@H](Cc3ccc(OCC(=O)O)cc3)NC(=O)[C@H](Cc3ccncc3)NC(=O)CSC[C@@H](C(=O)N[C@H](CC(N)=O)C(N)=O)NC(=O)[C@H](CO)NC(=O)[C@H](C(C)(C)O)NC(=O)[C@H](CC3CCCCC3)NC(=O)[C@H](CCN)NC(=O)[C@@H](CC(C)C)NC(=O)[C@H](CCCN)NC(=O)[C@H](Cc3ccc(O)cc3)NC(=O)[C@H](Cc3ccc(-c4ccccc4)cc3)NC(=O)[C@H](Cc3ccc(C(N)=O)cc3)NC2=O)c1` [Compound 2657] ({CH2CO}-[4Pal]Y(Carboxymethyl)D[Phe(3-Me)][Phe(4-CONH2)][Bip]Y[Orn][dL][Dab][Cha][Val(3-OH)]SC[dN]-NH2; thioether N-14), the IC50 was determined as 8.9 nM. Take `Cc1cccc(C[C@@H]2NC(=O)[C@H](CC(=O)O)NC(=O)[C@H](Cc3ccc(OCC(=O)O)cc3)NC(=O)[C@H](C(C)O)NC(=O)CSC[C@@H](C(=O)N[C@H](CC(N)=O)C(N)=O)NC(=O)[C@H](CO)NC(=O)[C@H](C(C)(C)O)NC(=O)[C@H](CC3CCCCC3)NC(=O)[C@H](CCN)NC(=O)[C@@H](CC(C)C)NC(=O)[C@H](CCCN)NC(=O)[C@H](Cc3ccc(O)cc3)NC(=O)[C@H](Cc3ccc(-c4ccccc4)cc3)NC(=O)[C@H](Cc3ccc(C(N)=O)cc3)NC2=O)c1` (stereo partly drawn) [Compound 2658] ({CH2CO}-[Thr(3ξ)]Y(Carboxymethyl)D[Phe(3-Me)][Phe(4-CONH2)][Bip]Y[Orn][dL][Dab][Cha][Val(3-OH)]SC[dN]-NH2; thioether N-14): the IC50 was 25.9 nM. As for `CC(C)C[C@H]1NC(=O)[C@H](CCCN)NC(=O)[C@H](C(C)C)NC(=O)[C@H](Cc2ccc(-c3ccccc3)cc2)NC(=O)[C@H](C(C)C)NC(=O)[C@H](Cc2c[nH]c3ccccc23)NC(=O)[C@H](CC(=O)O)NC(=O)[C@H](Cc2ccc(OCC(=O)O)cc2)NC(=O)[C@H](Cc2cnc[nH]2)NC(=O)CSC[C@@H](C(=O)N[C@H](C)C(N)=O)NC(=O)[C@H](C(C)O)NC(=O)[C@H](C(C)(C)O)NC(=O)[C@H](CC2CCCCC2)NC(=O)[C@H](CCN)NC1=O` (stereo partly drawn) [Compound 2659] ({CH2CO}-HY(Carboxymethyl)DWV[Bip]V[Orn][dL][Dab][Cha][Val(3-OH)][Thr(3ξ)]C[dA]-NH2; thioether N-14), the IC50 was found to be 11.8 nM.

The record behind these values is patent US20250163104A1, “MACROCYCLIC IMMUNOMODULATORS” (priority 2021, published 2025).
